Test results as given in PubChem BioAssay AID1626 (SRMLSC, 2009).

System: M. tuberculosis H37Rv growth inhibition
Assay: M. tuberculosis H37Rv growth inhibitors, H37Rv strain (AID 1626)
Settings: for IC90: measured here: IC90 against H37Rv; for CC50: measured here: Vero cell cytotoxicity

SMILES | IC50 [µM] | IC90 [µM] | CC50 [µM]
C=C1C(=O)O[C@@H]2C[C@@H](C)[C@@H]3C=CC(=O)[C@@]3(C)[C@@H](OC(C)=O)[C@H]12 | 2.07 | 3.51 | 2.02
O=C(CN1CCC(C(=O)c2ccc3c(c2)OCCO3)CC1)NC1CCCC1 | – | – | > 40
Cc1ccc(Nc2cc(C)nn2-c2nc(C)cc(C)n2)cc1 | < 0.195 | 56.1 | 13.5
CCn1c(COc2cccc3ccccc23)nnc1SCC(=O)OC1CCCCC1 | 4.04 | 14.1 | –
O=C(/C=C/c1ccccc1)c1c(O)n(CCc2ccccc2)c(=O)[nH]c1=O | 9.75 | 11.6 | 37.1
CCOc1ccc(N=CC2=C(O)CC(c3ccco3)CC2=O)cc1 (centres undefined) | 5.31 | > 100 | –
CCCC(=O)N1CCN(c2ccc(NC(=O)c3ccc([N+](=O)[O-])o3)cc2Cl)CC1 | < 0.195 | < 0.195 | 1.8
COc1cccc2sc(Nc3nnc(-c4ccc(F)cc4)o3)nc12 | 9.19 | 11.8 | 16
c1ccc(-c2nc(NCc3ccco3)c3ccccc3n2)nc1 | 1.92 | 3 | 9.33
Cc1cccc(/C=c2\s/c(=C\C(=O)C(C)(C)C)[nH]c2=O)c1 | 0.465 | 11.6 | 29
CCOC(=O)c1cccc(NC(=O)CCc2nc(-c3ccc(C)cc3)no2)c1 | 30.1 | > 100 | –
COc1ccc(/C=c2\s/c(=C/C(=O)c3ccc(C)cc3)[nH]c2=O)cc1OC | 32.6 | > 100 | –
O=C(Nc1nnc(-c2ccc(Cl)cc2)o1)C1=COCCO1 | 6.4 | 11.4 | > 40
Cc1cc(NC(=O)c2c(F)cccc2F)n(-c2nc3ccccc3[nH]2)n1 | 11.3 | 21.2 | 35.7
Cc1occc1-c1nnc(SCC(=O)NCCc2ccccc2)o1 | 15 | > 100 | –
O=C(Nc1nc(-c2ccccn2)cs1)c1cc(Cl)ccc1[N+](=O)[O-] | 0.87 | 2.24 | 2.24

SMILES | IC50 [µM] | IC90 [µM] | CC50 [µM]
CCN(CC)CCCNc1nc2cc(OC)c(OC)cc2c2nc(-c3ccccc3)nn12 | 9.3 | 13.8 | > 40
O=C(Nc1nc(-c2ccc(F)cc2)cs1)c1cnccn1 | – | > 100 | > 40
COC(=O)c1ccc(Cn2cc(C(F)(F)F)cc([N+](=O)[O-])c2=O)cc1 | 29.9 | > 100 | –
O=C(CCSc1ccc(Cl)cc1)c1cccs1 | – | > 100 | –
O=[N+]([O-])c1cc(/C=N/N/C(=N/c2ccccn2)c2ccccn2)ccc1O | 17.9 | > 100 | 26.8
CC1CCN(c2nc(CN3CCCCC3)nc3scc(-c4ccccc4)c23)CC1 | 9.11 | 11.9 | 34.9
CCOC(=O)CNC(=O)CSc1nc(-c2ccccc2)ns1 | 1.48 | 3.2 | –
Cc1cc(=O)oc2cc(OC(=O)c3ccco3)ccc12 | 61.6 | > 100 | –
CCOC(=O)C1=C(CC)Nc2ccccc2N=C1NC(=O)Nc1ccc(Cl)c(Cl)c1 | 2.73 | 3.1 | 10.3
CCn1cc(CNC(=O)c2cc([N+](=O)[O-])c(C)c([N+](=O)[O-])c2)cn1 | 0.547 | 0.874 | –
COc1cc(CNc2ccc3c(c2)CCC3)cc(OC)c1O | 46.4 | > 100 | –
CCOc1ccccc1/C=C/C(=O)c1ccc(Cl)cc1 | 24.3 | 34.2 | > 40
Cc1ccc2nc(-c3ccccn3)c(Nc3ccccc3C)n2c1 | 1.52 | 2.24 | 3.42
O=C(CSc1nc2ccc(Nc3nc(N4CCOCC4)nc(N4CCOCC4)n3)cc2s1)NCc1ccco1 | 36.5 | > 100 | > 40
COc1ccccc1C(=O)Nc1nnc(-c2ccc(Cl)cc2)o1 | 16.9 | > 100 | > 40
COc1ccc(N=Cc2c[nH][nH]c2=O)cc1 | – | > 100 | –
